Measurements published in the NIST ThermoML archive (doi:10.1021/je049534w).

Details: Liquid; for speed of sound: Linear variable-path acoustic interferometer

CCCCn1cc[n+](C)c1.F[B-](F)(F)F [1-butyl-3-methylimidazolium tetrafluoroborate]
Details	mass density [kg/m3]	speed of sound [m/s]
283.15 K, 100 kPa	–	1599.5
283.15 K, 4956 kPa	–	1612.5
283.15 K, 9954 kPa	–	1626.2
283.15 K, 20130 kPa	–	1653.1
283.15 K, 30003 kPa	–	1678.3
283.15 K, 44948 kPa	–	1714.7
283.15 K, 59705 kPa	–	1749
283.15 K, 79788 kPa	–	1793
283.15 K, 99235 kPa	–	1833.6
283.15 K, 124380 kPa	–	1882.9
283.15 K, 151416 kPa	–	1932.2
293.15 K, 100 kPa	–	1570.2
293.15 K, 5094 kPa	–	1584
293.15 K, 10075 kPa	–	1597.7
293.15 K, 20080 kPa	–	1624.4
293.15 K, 59673 kPa	–	1721
293.15 K, 98994 kPa	–	1806.1
293.15 K, 151068 kPa	–	1907.3
298.34 K, 100 kPa	1205.03	–
298.34 K, 700 kPa	1205.32	–
298.34 K, 5280 kPa	1207.44	–
298.34 K, 10600 kPa	1209.87	–
298.34 K, 15920 kPa	1212.24	–
298.34 K, 20540 kPa	1214.26	–
298.34 K, 25000 kPa	1216.18	–
298.34 K, 30710 kPa	1218.62	–
298.34 K, 35190 kPa	1220.47	–
298.34 K, 40660 kPa	1222.73	–
298.34 K, 44370 kPa	1224.21	–
298.34 K, 49660 kPa	1226.32	–
298.34 K, 54340 kPa	1228.16	–
298.34 K, 59230 kPa	1230.05	–
303.15 K, 100 kPa	–	1544.9
303.15 K, 5080 kPa	–	1558.6
303.15 K, 10091 kPa	–	1572.5
303.15 K, 20063 kPa	–	1599.5
303.15 K, 59767 kPa	–	1697
303.15 K, 99007 kPa	–	1782.6
303.15 K, 124609 kPa	–	1834
303.23 K, 100 kPa	1201.29	–
303.23 K, 8780 kPa	1205.3	–
303.23 K, 11170 kPa	1206.4	–
303.23 K, 15230 kPa	1208.22	–
303.23 K, 20270 kPa	1210.43	–
303.23 K, 24890 kPa	1212.44	–
303.23 K, 30670 kPa	1214.92	–
303.23 K, 34770 kPa	1216.66	–
303.23 K, 40020 kPa	1218.85	–
303.23 K, 44310 kPa	1220.61	–
303.23 K, 49500 kPa	1222.73	–
303.23 K, 54490 kPa	1224.75	–
303.23 K, 59820 kPa	1226.85	–
313.01 K, 100 kPa	1194.59	–
313.01 K, 4130 kPa	1196.19	–
313.01 K, 10180 kPa	1198.82	–
313.01 K, 15650 kPa	1201.26	–
313.01 K, 21300 kPa	1203.75	–
313.01 K, 24580 kPa	1205.19	–
313.01 K, 30110 kPa	1207.62	–
313.01 K, 35390 kPa	1209.88	–
313.01 K, 44700 kPa	1213.84	–
313.01 K, 49720 kPa	1215.92	–
313.01 K, 54430 kPa	1217.91	–
313.01 K, 59450 kPa	1219.95	–
313.15 K, 100 kPa	–	1525.2
313.15 K, 5091 kPa	–	1539.3
313.15 K, 10185 kPa	–	1554
313.15 K, 20070 kPa	–	1581
313.15 K, 59719 kPa	–	1679.3
313.15 K, 99014 kPa	–	1765.8
313.15 K, 123975 kPa	–	1816.6
313.15 K, 151204 kPa	–	1870
322.85 K, 100 kPa	1187.85	–
322.85 K, 3730 kPa	1189.5	–
322.85 K, 6220 kPa	1190.68	–
322.85 K, 10020 kPa	1192.47	–
322.85 K, 14870 kPa	1194.68	–
322.85 K, 20450 kPa	1197.2	–
322.85 K, 25400 kPa	1199.38	–
322.85 K, 31090 kPa	1201.87	–
322.85 K, 34850 kPa	1203.51	–
322.85 K, 41130 kPa	1206.23	–
322.85 K, 44880 kPa	1207.85	–
322.85 K, 49830 kPa	1209.95	–
322.85 K, 54520 kPa	1211.91	–
322.85 K, 59920 kPa	1214.2	–
323.15 K, 100 kPa	–	1503.4
323.15 K, 4999 kPa	–	1517.8
323.15 K, 10202 kPa	–	1533.4
323.15 K, 20046 kPa	–	1561.4
323.15 K, 59977 kPa	–	1662.1
323.15 K, 99014 kPa	–	1748.8
323.15 K, 123945 kPa	–	1798.9
323.15 K, 151374 kPa	–	1853.2
332.73 K, 100 kPa	1181.05	–
332.73 K, 4130 kPa	1182.92	–
332.73 K, 6350 kPa	1183.98	–
332.73 K, 11210 kPa	1186.3	–
332.73 K, 15220 kPa	1188.15	–
332.73 K, 20540 kPa	1190.55	–
332.73 K, 25280 kPa	1192.7	–
332.73 K, 30760 kPa	1195.16	–
332.73 K, 35080 kPa	1197.05	–
332.73 K, 40110 kPa	1199.23	–
332.73 K, 44860 kPa	1201.24	–
332.73 K, 49840 kPa	1203.35	–
332.73 K, 54760 kPa	1205.7	–
332.73 K, 59130 kPa	1207.2	–
